Data: the supplement of paper PMC10307832

Assays:
Test in all cases: relative viability (nuclei count vs DMSO), 5 days (fraction); higher = more cells survive
NCI-H661 = system: NCI-H661
Procedure, shortened: (§1)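 Lung cancer cell lines in 1536-well plates got either a single drug or a fixed anchor-drug dose together with five library-drug doses (not always all listed) in √10 steps, by pin tool, on the day after seeding. Nuclei were counted after 5 days, and relative viability is the treated-to-vehicle ratio of nuclei counts. Values are medians of duplicate plates.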

PC-3 [JPC-3] = system: PC-3 [JPC-3]
Procedure, shortened: as §1

NCI-H2405 = system: NCI-H2405
Procedure, shortened: as §1

NCI-H1792 = system: NCI-H1792
Procedure, shortened: as §1

HCC-15 = system: HCC-15
Procedure, shortened: as §1

NCI-H2087 = system: NCI-H2087
Procedure, shortened: as §1

COR-L 105 = system: COR-L 105
Procedure, shortened: as §1

NCI-H2009 = system: NCI-H2009
Procedure, shortened: as §1

HARA = system: HARA
Procedure, shortened: as §1

NCI-H2170 = system: NCI-H2170
Procedure, shortened: as §1

NCI-H1651 = system: NCI-H1651
Procedure, shortened: as §1

NCI-H23 = system: NCI-H23
Procedure, shortened: as §1

LCLC-97TM1 = system: LCLC-97TM1
Procedure, shortened: as §1

201T = system: 201T
Procedure, shortened: as §1

HCC-827 = system: HCC-827
Procedure, shortened: as §1

NCI-H1395 = system: NCI-H1395
Procedure, shortened: as §1

UMC-11 = system: UMC-11
Procedure, shortened: as §1

LU99A = system: LU99A
Procedure, shortened: as §1

SK-MES-1 = system: SK-MES-1
Procedure, shortened: as §1

H3255 = system: H3255
Procedure, shortened: as §1

NCI-H650 = system: NCI-H650
Procedure, shortened: as §1

## C=C1C(=O)O[C@@H](CCCCCCCC)[C@@H]1C(=O)O [C-75] + Nc1ncn([C@H]2C[C@H](O)[C@@H](CO)O2)c(=O)n1 [Decitabine] (partner 2 µM)
NCI-H661; first compound 0.08 µM
  relative viability: 0.545
NCI-H661; first compound 0.253 µM
  relative viability: 0.54
NCI-H661; first compound 0.8 µM
  relative viability: 0.519
NCI-H661; first compound 2.53 µM
  relative viability: 0.41
NCI-H661; first compound 8 µM
  relative viability: 0.448
PC-3 [JPC-3]; first compound 0.08 µM
  relative viability: 0.78
PC-3 [JPC-3]; first compound 0.253 µM
  relative viability: 0.798
PC-3 [JPC-3]; first compound 0.8 µM
  relative viability: 0.782
PC-3 [JPC-3]; first compound 2.53 µM
  relative viability: 0.793
PC-3 [JPC-3]; first compound 8 µM
  relative viability: 0.91
NCI-H2405; first compound 0.08 µM
  relative viability: 0.807
NCI-H2405; first compound 0.253 µM
  relative viability: 0.423
NCI-H2405; first compound 0.8 µM
  relative viability: 0.714
NCI-H2405; first compound 2.53 µM
  relative viability: 0.681
NCI-H2405; first compound 8 µM
  relative viability: 0.789
NCI-H1792; first compound 0.08 µM
  relative viability: 0.516
NCI-H1792; first compound 0.253 µM
  relative viability: 0.554
NCI-H1792; first compound 0.8 µM
  relative viability: 0.509
NCI-H1792; first compound 2.53 µM
  relative viability: 0.494
NCI-H1792; first compound 8 µM
  relative viability: 0.475
HCC-15; first compound 0.08 µM
  relative viability: 0.691
HCC-15; first compound 0.253 µM
  relative viability: 0.636
HCC-15; first compound 0.8 µM
  relative viability: 0.551
HCC-15; first compound 2.53 µM
  relative viability: 0.543
HCC-15; first compound 8 µM
  relative viability: 0.626
NCI-H2087; first compound 0.08 µM
  relative viability: 0.281
NCI-H2087; first compound 0.253 µM
  relative viability: 0.269
NCI-H2087; first compound 0.8 µM
  relative viability: 0.35
NCI-H2087; first compound 2.53 µM
  relative viability: 0.217
NCI-H2087; first compound 8 µM
  relative viability: 0.231
COR-L 105; first compound 0.08 µM
  relative viability: 0.7
COR-L 105; first compound 0.253 µM
  relative viability: 0.685
COR-L 105; first compound 0.8 µM
  relative viability: 0.582
COR-L 105; first compound 2.53 µM
  relative viability: 0.477
COR-L 105; first compound 8 µM
  relative viability: 0.606
NCI-H2009; first compound 0.08 µM
  relative viability: 0.37
NCI-H2009; first compound 0.253 µM
  relative viability: 0.393
NCI-H2009; first compound 0.8 µM
  relative viability: 0.327
NCI-H2009; first compound 2.53 µM
  relative viability: 0.314
NCI-H2009; first compound 8 µM
  relative viability: 0.338
HARA; first compound 0.08 µM
  relative viability: 0.538
HARA; first compound 0.253 µM
  relative viability: 0.444
HARA; first compound 0.8 µM
  relative viability: 0.565
HARA; first compound 2.53 µM
  relative viability: 0.535
HARA; first compound 8 µM
  relative viability: 0.756
NCI-H2170; first compound 0.08 µM
  relative viability: 0.479
NCI-H2170; first compound 0.253 µM
  relative viability: 0.505
NCI-H2170; first compound 0.8 µM
  relative viability: 0.449
NCI-H2170; first compound 2.53 µM
  relative viability: 0.422
NCI-H2170; first compound 8 µM
  relative viability: 0.401
NCI-H1651; first compound 0.08 µM
  relative viability: 0.565
NCI-H1651; first compound 0.253 µM
  relative viability: 0.685
NCI-H1651; first compound 0.8 µM
  relative viability: 0.559
NCI-H1651; first compound 2.53 µM
  relative viability: 0.381
NCI-H1651; first compound 8 µM
  relative viability: 0.599
NCI-H23; first compound 0.08 µM
  relative viability: 0.307
NCI-H23; first compound 0.253 µM
  relative viability: 0.334
NCI-H23; first compound 0.8 µM
  relative viability: 0.308
NCI-H23; first compound 2.53 µM
  relative viability: 0.249
NCI-H23; first compound 8 µM
  relative viability: 0.247
LCLC-97TM1; first compound 0.08 µM
  relative viability: 0.197
LCLC-97TM1; first compound 0.253 µM
  relative viability: 0.254
LCLC-97TM1; first compound 0.8 µM
  relative viability: 0.206
LCLC-97TM1; first compound 2.53 µM
  relative viability: 0.215
LCLC-97TM1; first compound 8 µM
  relative viability: 0.233
201T; first compound 0.08 µM
  relative viability: 0.844
201T; first compound 0.253 µM
  relative viability: 0.938
201T; first compound 0.8 µM
  relative viability: 0.842
201T; first compound 2.53 µM
  relative viability: 0.627
201T; first compound 8 µM
  relative viability: 0.813
HCC-827; first compound 0.253 µM
  relative viability: 0.333
HCC-827; first compound 0.8 µM
  relative viability: 0.277
HCC-827; first compound 8 µM
  relative viability: 0.262
NCI-H1395; first compound 0.08 µM
  relative viability: 0.74
NCI-H1395; first compound 0.253 µM
  relative viability: 0.674
NCI-H1395; first compound 2.53 µM
  relative viability: 0.667
NCI-H1395; first compound 8 µM
  relative viability: 0.69
UMC-11; first compound 0.08 µM
  relative viability: 0.696
UMC-11; first compound 0.253 µM
  relative viability: 0.642
UMC-11; first compound 0.8 µM
  relative viability: 0.577
UMC-11; first compound 2.53 µM
  relative viability: 0.642
UMC-11; first compound 8 µM
  relative viability: 0.434
LU99A; first compound 0.08 µM
  relative viability: 0.831
LU99A; first compound 0.253 µM
  relative viability: 0.78
LU99A; first compound 0.8 µM
  relative viability: 0.841
LU99A; first compound 2.53 µM
  relative viability: 0.83
LU99A; first compound 8 µM
  relative viability: 0.79
SK-MES-1; first compound 0.08 µM
  relative viability: 0.439
SK-MES-1; first compound 0.253 µM
  relative viability: 0.367
SK-MES-1; first compound 0.8 µM
  relative viability: 0.368
SK-MES-1; first compound 2.53 µM
  relative viability: 0.412
SK-MES-1; first compound 8 µM
  relative viability: 0.311
H3255; first compound 0.08 µM
  relative viability: 0.535
H3255; first compound 0.253 µM
  relative viability: 0.599
H3255; first compound 0.8 µM
  relative viability: 0.74
H3255; first compound 2.53 µM
  relative viability: 0.585
H3255; first compound 8 µM
  relative viability: 0.652
NCI-H650; first compound 0.08 µM
  relative viability: 0.315
NCI-H650; first compound 0.253 µM
  relative viability: 0.35
NCI-H650; first compound 0.8 µM
  relative viability: 0.329
NCI-H650; first compound 2.53 µM
  relative viability: 0.294
NCI-H650; first compound 8 µM
  relative viability: 0.403
